Assay results: US20220387407A1 (priority 2021, published 2022)
Marks after values point to notes of the source that are not given here.

How the values were obtained:
[1] = tested on: isoflurane-anesthetized rats; details: rat, in vivo
[2] = tested on: freely-moving rats; test: Blood pressure and heart rate measurement after morphine in freely-moving rats; details: for DBP, mmHg: Post-drug, % change from Pre (cumulative) / HR/MAP, mmHg/beats/min: Post-drug, % change from Pre (cumulative) / Heart rate (HR), beats/min: Post-drug, % change from Pre (cumulative) / MAP, mmHg: Post-drug, % change from Pre (cumulative) / SBP, MmHg: Post-drug % change from Pre (cumulative): 15-30 min post-morphine; for DBP, mmHg: Post-drug, % change from morphine (cumulative) / HR/MAP, mmHg/beats/min: Post-drug, % change from morphine (cumulative) / Heart rate (HR), beats/min: Post-drug % change from morphine (cumulative) / MAP, mmHg: Post-drug, % change from morphine (cumulative) / SBP, MmHg: Post-drug, % change from morphine (cumulative): final 15 min morphine value as pre-value
[3] = tested on: conscious rats; set-up: species or system Sprague-Dawley rats; details: rat, in vivo
[4] = tested on: freely-moving rats; test: Tissue O2 saturation (SpO2) analysis after morphine in freely-moving rats; details: for Cumulative change in sPO2: Post-drug, % change from morphine: 15 min post-morphine value as pre-value
[5] = tested on: freely-moving rats; test: Arterial blood gases, pH and A-a gradient after morphine in freely-moving rats
[6] = Tempol 60 mg/kg IV 15 min after morphine 10 mg/kg IV
[7] = Tempol 100 mg/kg IV 15 min after morphine 10 mg/kg IV
[8] = Tempol 60 mg/kg IV after morphine 10 mg/kg IV, FIG. 14

SMILES: CC1(C)CC(O)CC(C)(C)N1[O] [Tempol, 4-hydroxy-2,2,6,6-tetramethylpiperidine-N-oxyl]
- frequency of breathing (Freq), change elicited by Tempol [1]: minimal changes
- heart rate (HR), change elicited by Tempol [1]: somewhat minor but sustained decreases
- mean (MAP), diastolic (DBP) and systolic (SBP) arterial blood pressures, change elicited by Tempol [1]: pronounced dose-dependent decreases
- tidal volume (TV) and minute ventilation (MV), change elicited by Tempol [1]: somewhat dose-dependent (relatively minor but sustained) increases
- total responses (all time points summed) in MAP, DBP, SBP and HR elicited by Tempol [1]: significant decreases
- total responses (all time points summed) in TV and MV elicited by Tempol [1]: significant increases
- DBP, mmHg: Post-drug, % change from Pre (cumulative) [2, 6]: −16.7 ± 1.7 %
- HR/MAP, mmHg/beats/min: Post-drug, % change from Pre (cumulative) [2, 6]: +19.2 ± 12.7 %
- Heart rate (HR), beats/min: Post-drug, % change from Pre (cumulative) [2, 6]: +1.8 ± 7.1 %
- MAP, mmHg: Post-drug, % change from Pre (cumulative) [2, 6]: −13.7 ± 1.7 %
- SBP, MmHg: Post-drug % change from Pre (cumulative) [2, 6]: −9.5 ± 1.9 %
- MAP, change elicited by Tempol after morphine ([2]; Tempol 60 mg/kg IV 15 min after morphine 10 mg/kg IV, FIG. 18): minor short-lived fall
- DBP, mmHg: Post-drug, % change from morphine (cumulative) [2, 6]: −13.9 ± 2.4*^,† %
- HR/MAP, mmHg/beats/min: Post-drug, % change from morphine (cumulative) [2, 6]: +53.3 ± 13.7*^,† %
- Heart rate (HR), beats/min: Post-drug % change from morphine (cumulative) [2, 6]: +31.2 ± 10.3*^,† %
- MAP, mmHg: Post-drug, % change from morphine (cumulative) [2, 6]: −13.2 ± 1.8*^,† %
- SBP, MmHg: Post-drug, % change from morphine (cumulative) [2, 6]: −11.3 ± 1.6*^,† %
- DBP, mmHg: Post-drug, % change from Pre (cumulative) [2, 7]: −19.6 ± 2.0 %
- HR/MAP, mmHg/beats/min: Post-drug, % change from Pre (cumulative) [2, 7]: +18.3 ± 3.9*7%
- Heart rate (HR), beats/min: Post-drug, % change from Pre (cumulative) [2, 7]: −6.8 ± 3.0*^,† %
- MAP, mmHg: Post-drug, % change from Pre (cumulative) [2, 7]: −19.4 ± 1.5*^,† %
- SBP, MmHg: Post-drug % change from Pre (cumulative) [2, 7]: −18.8 ± 1.2*^,† %
- MAP, change elicited by Tempol after morphine ([2]; Tempol 100 mg/kg IV 15 min after morphine 10 mg/kg IV, FIG. 18): prompt and sustained decrease
- DBP, mmHg: Post-drug, % change from morphine (cumulative) [2, 7]: −3.2 ± 4.1 %
- HR/MAP, mmHg/beats/min: Post-drug, % change from morphine (cumulative) [2, 7]: +43.0 ± 7.1*^,† %
- Heart rate (HR), beats/min: Post-drug % change from morphine (cumulative) [2, 7]: +37.0 ± 9.9*^,† %
- MAP, mmHg: Post-drug, % change from morphine (cumulative) [2, 7]: −5.6 ± 3.2 %
- SBP, MmHg: Post-drug, % change from morphine (cumulative) [2, 7]: −9.1 ± 2.3*^,† %
- morphine-induced bradycardia, effect of Tempol ([2]; Tempol 60 and 100 mg/kg IV 15 min after morphine 10 mg/kg IV, FIG. 18): prompt and sustained reversal
- heart rate/MAP ratios, change elicited by Tempol after morphine ([2]; Tempol 60 or 100 mg/kg IV, especially the 100 mg/kg dose, after morphine 10 mg/kg IV, FIG. 20): rapid and sustained increase
- tail-flick latencies, effect of Tempol alone [3]: no effects
- Cumulative change in sPO2: Post-drug, % change from morphine [4, 6]: +5.0 ± 0.6*^,† %
- SpO2, effect of Tempol after morphine ([4]; Tempol 60 mg/kg IV 15 min after morphine 10 mg/kg IV, FIG. 17): minor short-lived rise
- Cumulative change in sPO2: Post-drug, % change from morphine [4, 7]: +12.4 ± 2.0*^,† %
- negative effects of morphine on tissue oxygenation (SpO2), effect of Tempol ([4]; Tempol 100 mg/kg IV 15 min after morphine 10 mg/kg IV, FIG. 17): prompt and sustained reversal
- effects of morphine on pH and sO2, effect of Tempol [5, 8]: not reaching significance
- negative effects of morphine on pCO2 and pO2, effect of Tempol [5, 8]: reversed the negative effects
- morphine-induced rise in A-a gradient, effect of Tempol ([5]; Tempol 60 mg/kg IV after morphine 10 mg/kg IV, FIG. 15 top panel): not affected
- A-a gradient, effect of Tempol ([5]; Tempol 100 mg/kg IV after morphine 10 mg/kg IV, 5 min post-administration, FIG. 15 bottom panel): pronounced decrease
- negative effects of morphine on pH, pCO2, pO2 and sO2, effect of Tempol ([5]; Tempol 100 mg/kg IV after morphine 10 mg/kg IV, FIG. 16): sustained reversal

SMILES: CN1CC[C@]23c4c5ccc(O)c4O[C@H]2[C@@H](O)C=C[C@H]3[C@H]1C5 [Morphine, morphine]
- MAP, change elicited by morphine ([2]; morphine 10 mg/kg IV, FIG. 18): relatively minor initial decreases
- heart rate, change elicited by morphine ([2]; morphine 10 mg/kg IV, FIG. 18): substantial decreases
- ratio of heart rate/MAP (index of baroreceptor heart rate reflex activity), change elicited by morphine ([2]; morphine 10 mg/kg IV, FIG. 20): somewhat minor reductions
- SpO2, change elicited by morphine ([4]; morphine 10 mg/kg IV, FIG. 17): pronounced and long-lasting decrease
- pCO2, change elicited by morphine ([5]; morphine 10 mg/kg IV, FIG. 14): equally pronounced increases
- pH, pO2 and sO2, change elicited by morphine ([5]; morphine 10 mg/kg IV, FIG. 14): pronounced decreases
- A-a gradient, change elicited by morphine ([5]; morphine 10 mg/kg IV, FIG. 15): rise
